{"source": "paper PMC7794376", "about": "(Nature Communications, 2021)", "target": "MtbCoaBC (Mycobacterium tuberculosis, UniProt P9WNZ1)", "sequence (P9WNZ1 whole entry)": "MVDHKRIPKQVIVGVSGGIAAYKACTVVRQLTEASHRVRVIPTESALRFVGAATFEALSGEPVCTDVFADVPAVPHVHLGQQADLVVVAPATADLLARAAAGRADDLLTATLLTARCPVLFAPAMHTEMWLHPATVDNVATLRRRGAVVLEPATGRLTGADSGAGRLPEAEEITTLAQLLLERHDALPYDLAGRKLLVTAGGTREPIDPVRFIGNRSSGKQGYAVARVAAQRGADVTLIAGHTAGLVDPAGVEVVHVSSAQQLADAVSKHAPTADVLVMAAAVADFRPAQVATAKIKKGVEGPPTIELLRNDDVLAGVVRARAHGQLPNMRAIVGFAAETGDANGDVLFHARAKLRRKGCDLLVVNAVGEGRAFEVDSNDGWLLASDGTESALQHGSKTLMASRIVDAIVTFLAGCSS", "assay": "biochemical", "assay_type": "biochemical", "details": "for Activity % R1 / Activity % R3 / Activity %: relative to average CT; for Activity % R1 / Inhibition % R1 / Activity R1: replicate R1; for Activity % R3 / Inhibition % R3 / Activity R3: replicate R3; for Activity R1 / Activity R3: slope of absorbance at 360 nm vs time (s); for Activity % / Inhibition %: MtbCoaBC, replicates R1-R3; for reaction rate (slope of absorbance at 360 nm versus time), replicates: IC50 MtbCoaBC MlCoA; for reaction rate (slope of absorbance at 360 nm versus time), replicates / % inhibition, replicates / % remaining activity relative to uninhibited control, replicates: three replicates", "key": {"[1]": {"details": "MlCoA concentration 512 (log 2.70927; unit not given)"}, "[2]": {"details": "MlCoA concentration 1024 (log 3.0103; unit not given)"}}, "note": "Several values for one entry are separate records, joined by “and”; a condition that tells them apart may be missing. Identical values can stand only once."}
{"molecule": "succinyl-CoA [SucCoA]", "values": [{"measurement": "Activity % R1", "setting": "8 uM SucCoA", "result": 96.11, "unit": "%"}, {"measurement": "Activity % R3", "setting": "8 uM SucCoA", "result": 95.1, "unit": "%"}, {"measurement": "Inhibition % R1", "setting": "8 uM SucCoA", "result": 3.89, "unit": "%"}, {"measurement": "Inhibition % R3", "setting": "8 uM SucCoA", "result": 4.90, "unit": "%"}, {"measurement": "Activity R1", "setting": "8 uM SucCoA", "result": 0.0001648}, {"measurement": "Activity R3", "setting": "8 uM SucCoA", "result": 0.0001631}, {"measurement": "Activity % R1", "setting": "16 uM SucCoA", "result": 73.57, "unit": "%"}, {"measurement": "Activity % R3", "setting": "16 uM SucCoA", "result": 71.48, "unit": "%"}, {"measurement": "Inhibition % R1", "setting": "16 uM SucCoA", "result": 26.43, "unit": "%"}, {"measurement": "Inhibition % R3", "setting": "16 uM SucCoA", "result": 28.52, "unit": "%"}, {"measurement": "Activity R1", "setting": "16 uM SucCoA", "result": 0.0001261}, {"measurement": "Activity R3", "setting": "16 uM SucCoA", "result": 0.0001226}, {"measurement": "Activity % R1", "setting": "32 uM SucCoA", "result": 58.32, "unit": "%"}, {"measurement": "Activity % R3", "setting": "32 uM SucCoA", "result": 59.99, "unit": "%"}, {"measurement": "Inhibition % R1", "setting": "32 uM SucCoA", "result": 41.68, "unit": "%"}, {"measurement": "Inhibition % R3", "setting": "32 uM SucCoA", "result": 40.01, "unit": "%"}, {"measurement": "Activity R1", "setting": "32 uM SucCoA", "result": 0.000099995}, {"measurement": "Activity R3", "setting": "32 uM SucCoA", "result": 0.0001029}, {"measurement": "Activity % R1", "setting": "64 uM SucCoA", "result": 30.98, "unit": "%"}, {"measurement": "Activity % R3", "setting": "64 uM SucCoA", "result": 29.66, "unit": "%"}, {"measurement": "Inhibition % R1", "setting": "64 uM SucCoA", "result": 69.02, "unit": "%"}, {"measurement": "Inhibition % R3", "setting": "64 uM SucCoA", "result": 70.34, "unit": "%"}, {"measurement": "Activity R1", "setting": "64 uM SucCoA", "result": 0.000053122}, {"measurement": "Activity R3", "setting": "64 uM SucCoA", "result": 0.000050860}, {"measurement": "Activity % R1", "setting": "128 uM SucCoA", "result": 16.56, "unit": "%"}, {"measurement": "Activity % R3", "setting": "128 uM SucCoA", "result": 18.74, "unit": "%"}, {"measurement": "Inhibition % R1", "setting": "128 uM SucCoA", "result": 83.44, "unit": "%"}, {"measurement": "Inhibition % R3", "setting": "128 uM SucCoA", "result": 81.26, "unit": "%"}, {"measurement": "Activity R1", "setting": "128 uM SucCoA", "result": 0.000028403}, {"measurement": "Activity R3", "setting": "128 uM SucCoA", "result": 0.000032131}, {"measurement": "Activity % R1", "setting": "256 uM SucCoA", "result": 6.801, "unit": "%"}, {"measurement": "Activity % R3", "setting": "256 uM SucCoA", "result": 8.41, "unit": "%"}, {"measurement": "Inhibition % R1", "setting": "256 uM SucCoA", "result": 93.20, "unit": "%"}, {"measurement": "Inhibition % R3", "setting": "256 uM SucCoA", "result": 91.59, "unit": "%"}, {"measurement": "Activity R1", "setting": "256 uM SucCoA", "result": 0.000011661}, {"measurement": "Activity R3", "setting": "256 uM SucCoA", "result": 0.000014421}]}
{"molecule": "CC(C)(COP(=O)(O)OP(=O)(O)OC[C@H]1O[C@@H](n2cnc3c(N)ncnc32)[C@H](O)[C@@H]1OP(=O)(O)O)[C@@H](O)C(=O)NCCC(=O)NCCSC(=O)CC(=O)O", "note": "[MlCoA, malonyl-CoA]", "values": [{"measurement": "Activity %", "setting": "8 uM MlCoA", "result": "92.1% and 91.15% and 93.21%"}, {"measurement": "Inhibition %", "setting": "8 uM MlCoA", "result": "8.85% and 6.79% and 7.90%"}, {"measurement": "Activity %", "setting": "16 uM MlCoA", "result": "76.14% and 76.7% and 75.8%"}, {"measurement": "Inhibition %", "setting": "16 uM MlCoA", "result": "23.30% and 24.20% and 23.86%"}, {"measurement": "Activity %", "setting": "32 uM MlCoA", "result": "63.4% and 64.14% and 61%"}, {"measurement": "Inhibition %", "setting": "32 uM MlCoA", "result": "35.86% and 39.00% and 36.60%"}, {"measurement": "Activity %", "setting": "64 uM MlCoA", "result": "43.31% and 44.56% and 41.61%"}, {"measurement": "Inhibition %", "setting": "64 uM MlCoA", "result": "55.44% and 58.39% and 56.69%"}, {"measurement": "Activity %", "setting": "128 uM MlCoA", "result": "23.32% and 26.33% and 20.47%"}, {"measurement": "Inhibition %", "setting": "128 uM MlCoA", "result": "73.67% and 79.53% and 76.68%"}, {"measurement": "Activity %", "setting": "256 uM MlCoA", "result": "12.52% and 10.98% and 14.64%"}, {"measurement": "Inhibition %", "setting": "256 uM MlCoA", "result": "89.02% and 85.36% and 87.48%"}, {"measurement": "IC50", "setting": "CoaB activity, […] CTP, […] PPA, 500 µM L-cysteine, average of three independent experiments ± SD, read-out: IC50 EnzChek MtbCoaBC", "result": "48 ± 3", "unit": "µM"}, {"measurement": "reaction rate (slope of absorbance at 360 nm versus time), replicates", "setting": "[1]", "result": "0.000003647 and 0.000000222 and 0.000004502"}, {"measurement": "% inhibition, replicates", "setting": "[1]", "result": "99.87 and 97.43 and 97.92"}, {"measurement": "% remaining activity relative to uninhibited control, replicates", "setting": "[1]", "result": "2.081 and 0.1265 and 2.569"}, {"measurement": "reaction rate (slope of absorbance at 360 nm versus time), replicates", "setting": "[2]", "result": "0.000003588 and 0.000000204 and 0.000003109"}, {"measurement": "% inhibition, replicates", "setting": "[2]", "result": "99.88 and 98.23 and 97.95"}, {"measurement": "% remaining activity relative to uninhibited control, replicates", "setting": "[2]", "result": "2.047 and 0.1162 and 1.774"}]}
